Laboratory results taken from publication PMC11946908, “Plasmodium blood stage development requires the chromatin remodeller Snf2L” (Nature, 2025).

Tests used:
Type in all cases: biochemical
PfSnf2L [1] = molecular target: T1, PfSnf2L (Plasmodium falciparum, UniProt Q8IIW0); assay: ADP biosensor (TMR-ParM) ATPase assay, single dose response; details: 0.4 µM enzyme, 125 µM ATP, plasmid DNA, 5 µM H4 peptide, 1.5 mM MgCl2, pH 8.6, 28 °C; allosteric
T1 construct: gene PF3D7_1104200; amino acids 250-1426, C-terminal 10xHis tag, baculovirus, Sf21 insect cells
T1 sequence (Q8IIW0 250-1426): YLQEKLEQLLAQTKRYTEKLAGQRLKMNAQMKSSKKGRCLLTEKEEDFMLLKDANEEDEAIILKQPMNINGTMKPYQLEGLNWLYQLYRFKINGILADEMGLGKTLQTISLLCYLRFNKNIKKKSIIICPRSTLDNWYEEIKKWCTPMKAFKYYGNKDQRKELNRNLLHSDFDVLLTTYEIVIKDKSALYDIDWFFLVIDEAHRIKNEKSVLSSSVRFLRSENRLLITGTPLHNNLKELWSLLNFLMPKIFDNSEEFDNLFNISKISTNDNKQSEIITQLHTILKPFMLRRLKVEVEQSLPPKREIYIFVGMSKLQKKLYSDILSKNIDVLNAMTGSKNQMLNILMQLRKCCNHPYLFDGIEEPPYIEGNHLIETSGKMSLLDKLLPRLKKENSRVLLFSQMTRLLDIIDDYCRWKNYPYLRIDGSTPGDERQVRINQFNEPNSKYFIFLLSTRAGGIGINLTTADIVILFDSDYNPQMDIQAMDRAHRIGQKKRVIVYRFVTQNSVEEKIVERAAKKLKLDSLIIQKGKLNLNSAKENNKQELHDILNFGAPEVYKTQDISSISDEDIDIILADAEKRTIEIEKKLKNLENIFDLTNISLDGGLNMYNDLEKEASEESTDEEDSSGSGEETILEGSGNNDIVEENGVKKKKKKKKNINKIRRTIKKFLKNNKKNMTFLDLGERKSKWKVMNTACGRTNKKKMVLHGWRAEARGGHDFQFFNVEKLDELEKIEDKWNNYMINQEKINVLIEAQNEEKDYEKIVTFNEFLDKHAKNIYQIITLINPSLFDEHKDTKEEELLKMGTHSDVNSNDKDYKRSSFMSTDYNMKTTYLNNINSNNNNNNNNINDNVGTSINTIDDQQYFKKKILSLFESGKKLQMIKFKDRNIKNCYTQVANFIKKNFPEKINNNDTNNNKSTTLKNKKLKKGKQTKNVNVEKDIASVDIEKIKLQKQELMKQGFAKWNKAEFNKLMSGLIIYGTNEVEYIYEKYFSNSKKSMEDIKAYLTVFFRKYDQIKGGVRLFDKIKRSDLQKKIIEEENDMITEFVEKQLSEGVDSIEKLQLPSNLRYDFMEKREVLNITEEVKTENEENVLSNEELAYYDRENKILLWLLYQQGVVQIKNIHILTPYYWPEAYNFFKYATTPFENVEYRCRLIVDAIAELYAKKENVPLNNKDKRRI

HsSNF2L = molecular target: T2, HsSNF2L (Homo sapiens, UniProt P28370); assay: […]-gamma-ATP hydrolysis, thin-layer chromatography; details: 500 µM ATP, 1.5 mM MgCl2, pH 7.6, 30 °C, with or without mononucleosomes
T2 construct: gene SMARCA1; 6xHis tag, baculovirus, Sf21 insect cells
T2 sequence (P28370 whole entry): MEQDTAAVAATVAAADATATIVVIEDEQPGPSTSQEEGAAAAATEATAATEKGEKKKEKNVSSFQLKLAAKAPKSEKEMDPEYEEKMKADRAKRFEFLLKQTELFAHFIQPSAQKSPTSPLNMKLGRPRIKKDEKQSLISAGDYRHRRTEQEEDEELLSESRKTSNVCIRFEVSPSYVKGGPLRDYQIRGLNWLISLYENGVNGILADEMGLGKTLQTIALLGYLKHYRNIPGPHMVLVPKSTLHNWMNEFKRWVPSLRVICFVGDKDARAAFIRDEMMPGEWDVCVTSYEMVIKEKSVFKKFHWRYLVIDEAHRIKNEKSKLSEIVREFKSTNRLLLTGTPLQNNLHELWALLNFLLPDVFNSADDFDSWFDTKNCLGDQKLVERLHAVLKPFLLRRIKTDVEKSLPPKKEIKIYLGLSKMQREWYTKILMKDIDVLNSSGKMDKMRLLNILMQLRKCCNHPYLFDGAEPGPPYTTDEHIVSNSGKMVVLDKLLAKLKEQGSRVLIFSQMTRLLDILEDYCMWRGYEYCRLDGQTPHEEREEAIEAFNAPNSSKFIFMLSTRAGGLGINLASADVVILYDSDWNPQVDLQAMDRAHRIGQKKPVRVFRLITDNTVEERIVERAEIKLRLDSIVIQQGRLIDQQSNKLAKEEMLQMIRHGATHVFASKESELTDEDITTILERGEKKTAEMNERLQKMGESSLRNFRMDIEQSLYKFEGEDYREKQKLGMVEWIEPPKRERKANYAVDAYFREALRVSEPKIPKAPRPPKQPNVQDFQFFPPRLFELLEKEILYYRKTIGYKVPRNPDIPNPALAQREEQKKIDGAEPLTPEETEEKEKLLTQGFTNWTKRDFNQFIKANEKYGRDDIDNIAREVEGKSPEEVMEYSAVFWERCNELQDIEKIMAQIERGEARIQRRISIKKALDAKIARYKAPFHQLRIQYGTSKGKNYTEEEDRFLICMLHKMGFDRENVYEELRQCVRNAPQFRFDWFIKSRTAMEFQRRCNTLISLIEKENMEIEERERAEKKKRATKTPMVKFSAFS

PfSnf2L [2] = molecular target: T1, PfSnf2L; assay: as above; details: 500 µM ATP, 1.5 mM MgCl2, pH 7.6, 30 °C, with or without mononucleosomes

Structure (SMILES) | ADP biosensor (TMR-ParM) ATPase assay, single dose response (PfSnf2L [1]) | 32P-gamma-ATP hydrolysis, thin-layer chromatography (HsSNF2L) | 32P-gamma-ATP hydrolysis, thin-layer chromatography (PfSnf2L [2])
CCCCCCCCCCCCCCCC[n+]1ccn(Cc2ccccc2)c1C [NH125] | ATP hydrolysis kinetic of PfSnf2L in presence of NH125 in varying concentrations | – | –
Nc1ncnc2c1ncn2[C@@H]1O[C@H](COP(=O)(O)OP(=O)(O)OP(=O)(O)O)[C@@H](O)[C@H]1O [ATP] | – | The non-stimulated or nucleosome-stimulated ATP hydrolysis rate of PfSnf2L/HsSNF2L | The non-stimulated or nucleosome-stimulated ATP hydrolysis rate of PfSnf2L/HsSNF2L
